Reference: US8268888B2, “Therapy of malignant neoplasias” (priority 2005, dated 2012)
Read-outs that look alike come from different tables or passages of the source.

What was measured:
[1] = rat, in vivo; cited from earlier work
[2] = tested on: malignant cell lines; assay: Cell survival rate after treatment with 3/4-iodo-L-phenylalanine (cytotoxic/cytostatic effect); type: cell-based, human
Experimental: Five human glioma cell lines, one rat glioma cell line, two human prostate cancer cell lines, as well as one human breast cancer cell line, and a melanoma cell line were investigated. The human glioma cell lines Tx 3868 and T 5135 (from primary human glioblastoma multiforme), and the rat C6 glioma cells were provided by the Institute of Human Genetics, University of the Saarland (Homburg, Germany). The human high-grade glioma cells, designated as A1207, M059K and U373MG, the human prostate cancer cells PC3 and […], the pancreatic carcinoma cell line PanC1, the human breast cancer cell line MCF-07 (American Type Culture Collection, Rockville, Md.), and the pancreatic carcinoma cell line PaCa44 (established by Dr Bulow, Mainz, Germany) as well as the melanoma cell lines SK-MEL25 and A101D were purchased commercially or provided by the oncological research laboratory of the University Medical Center of Saarland (Homburg, Germany). […]
Human tumor cells grown on standard glass slides were fixed in 4% neutral buffered formalin and stained with the Giemsa method. The cell number was calculated in 10 consecutive high power fields (×40).

[3] = tested on: human tumor cells; assay: Internalisation (uptake) experiments in tumor cells; type: cell-based
Experimental: Uptake experiments were undertaken to evaluate the affinity of the proposed L-phenylalanine derivatives for the proposed human tumors, and to assess their therapeutic activity in vitro. All experiments were performed fourfold, simultaneously with 250000, 500000 and 10^6 freshly prepared human tumor cells, including human malignant glioma cells, pancreatic prostatic and breast cancer cells. Before experiments, subconfluent cells were trypsinized as described above. The suspension was mixed thoroughly, transferred to a 50-ml centrifuge tube (Falcon®, Becton Dickinson, USA). Cells were centrifuged for 5 min at 200×g; the resulting supernatant was removed and the pellet resuspended in serum-free Dulbecco's Mod Eagle medium and then transferred to Eppendorf tubes at concentrations of 10^6 cells/ml for the uptake investigations. Before incubation with the corresponding radiolabeled phenylalanine, the tumor cells were preincubated for 5 min in 500 μL medium at 37° C. in 1.5-ml Eppendorf centrifuge tubes. Aliquots of 30-50 μL (10^6−1.5×10^6 cpm) freshly prepared radiopharmaceutical were added and cells incubated at 37° C./5% CO2 for 1, 2, 5, 15, 30, 60, 90 and 120 min while shaking. Uptake was stopped with 500 μL ice-cold PBS (pH 7.4) and an additional 3-min in an ice bath, the cells were centrifuged for 2 min at 300×g, the supernatant removed and the pellet washed three time with ice-cold PBS. Cell pellets were counted for radioactivity together with 3 aliquots of standards on a Berthold LB951 counter. The percentage of binding of the radiopharmaceutical was calculated by the formula: (cpm cell pellet/mean cpm radioactive standards)×100. The results were expressed either as percent of the applied dose per 10^6 cells or as cpm/1000 cells for better comparison.

[4] = tested on: human Tx3868 glioblastoma cells; assay: Radiosensitizing effect: IPA combined with external irradiation in glioblastoma cells; type: cell-based; conditions: for radiosensitizer effect: concomitantly administered therapeutic radiation
Experimental: Five human glioma cell lines, one rat glioma cell line, two human prostate cancer cell lines, as well as one human breast cancer cell line, and a melanoma cell line were investigated. The human glioma cell lines Tx 3868 and T 5135 (from primary human glioblastoma multiforme), and the rat C6 glioma cells were provided by the Institute of Human Genetics, University of the Saarland (Homburg, Germany). The human high-grade glioma cells, designated as A1207, M059K and U373MG, the human prostate cancer cells PC3 and […], the pancreatic carcinoma cell line PanC1, the human breast cancer cell line MCF-07 (American Type Culture Collection, Rockville, Md.), and the pancreatic carcinoma cell line PaCa44 (established by Dr Bulow, Mainz, Germany) as well as the melanoma cell lines SK-MEL25 and A101D were purchased commercially or provided by the oncological research laboratory of the University Medical Center of Saarland (Homburg, Germany). Cells were cultivated in RPMI-1640 medium or in Dulbecco's modified Eagle medium (sodium pyruvate-free, supplemented with […] and pyridoxine), respectively, supplemented with 10% (v/v) heat-inactivated foetal calf serum (FCS), penicillin (50 U/ml), streptomycin (50 μg/ml), and insulin (50 μg/ml; PromoCell, Heidelberg, Germany). All cell lines were maintained in appropriate flasks in a humidified incubator (5% CO2) at 37° C. Before the experiment, subconfluent cell cultures were trypsinized with a solution of 0.05% trypsin containing 0.02% EDTA but without Ca^2+ and Mg^2+, and resuspended in fresh medium to various cell concentrations after counting by vital staining on a hemocytometer, depending upon the study. Cells were free of mycoplasms. Viability of the cells was >95%.
Evaluation of the cell survival rate after treatment with 3/4-iodo-L-phenylalanine. After development of a confluent lawn of cells, the cultures were exposed to 0.1-5 μmol/ml of the corresponding pharmaceutical for up to 48 hours at 37° C./5% CO2. In a parallel experiment, cells were irradiated using a 6-MeV linear accelerator with doses from 2 to 15 Gy or treated with IPA-131 for comparison of cell survival rate. In order to be able to observe the morphology of the glioma cells, the cells were grown on standard glass slides or in standard culture dishes. Then the medium was removed and the cells were fixed either in 70% ethanol for at least 30 min on ice for flow-cytometric analyses after staining or in 4% neutral buffered formalin for immunohistopathological analyse.

[5] = tested on: human A1207 and T3868 glioblastoma xenografts; assay: Intracranial human glioma model in RNU rats (survival); type: in vivo; conditions: daily in first week then weekly, n=9
Experimental: An in vivo experiment was carried out in an intracranial human glioma model in RNU rats to assess the therapeutic effectiveness of 4-Iodo-L-phenylalanine (IPA) in glioma.
Primary human A1207 and T3868 glioblastoma cells (0.5×10^6 cells) were stereotaxically implanted into the right frontal region of RNU rats (2 mm posterior and 2 mm lateral to the intersection of the sagittal and bregma sutures to a depth of 5 mm) while under chloralhydrate anesthesia. The craniectomy was resealed with bone wax and the scalp closed.
IPA (1 and 5 mg/kg b.w.) was administrated i.p. in rats bearing human glioblastoma xenografts (n=9 in each group), starting at day 1 after stereotaxic implantation.
IPA was administrated daily in the first week after implantation and weekly afterwards. Another six RNU rats were treated with saline and served as control.
Then the following parameters were compared: median survival time, tumor size and histology after biopsy.

[6] = rats, cited from earlier work
[7] = Acute toxicity (LD50/LD10) in rats; conditions: i.p. injection
[8] = tested on: malignant gliomas; conditions: cited from earlier work

N[C@@H](Cc1ccc(Cl)cc1)C(=O)O (racemic) [p-chloro-phenylalanine]
effect on growth of developing rats [1]: interferes with the growth of developing rats

N[C@@H](Cc1ccccc1I)C(=O)O [2-iodo-L-phenylalanine, reference compound]
cytotoxicity in neoplastic cells ([2]; compared with IPA and IMA): moderate cytotoxity | uptake in neoplastic cells ([3]; compared with IPA and IMA): low uptake

N[C@@H](Cc1cccc(I)c1)C(=O)O [3-iodo-L-phenylalanine]
radiosensitizer effect [4]: significant intrinsic radiosensitizer effect

N[C@@H](Cc1ccc(I)cc1)C(=O)O [IPA, 4-iodo-L-phenylalanine]
cytostatic effect on primary human glioblastoma cells ([2]; FIG. 4, compared with external irradiation): concentration dependent and more pronounced as compared to external irradiation up to 15 Gy | uptake in human tumor cells ([3]; quantified with 4-[123I]iodo-L-phenylalanine, up to 120 min, FIGS. 1-3): high uptake | concentration up to which transport capacity did not show saturation ([3]; tumor cells): > 200 µmol/L | rats still alive at day 28 ([5]; IPA 1 mg/kg i.p.): six out of nine | rats still alive at day 28 ([5]; IPA 5 mg/kg i.p.): seven out of nine | induction of necrosis/apoptosis ([4]; 0.3 μmol/ml IPA with 10 Gy external radiation, FIG. 7b): increased induction of necrosis and additional induction of apoptosis | radiosensitizer effect [4]: significant intrinsic radiosensitizer effect | cell survival rate on combining with external irradiation ([4]; glioma cells, FIGS. 4-6): dramatic reduction of cell survival rate | LD50 ([6]; route not stated): > 100 mg/kg | LD10 [7]: > 27 mg/kg

N[C@@H](Cc1ccc([123I])cc1)C(=O)O [IPA-123, 4-[^123I]iodo-L-phenylalanine]
blood-brain barrier passage ([8]; after intravenous administration): crosses | enrichment in certain tumors (factor) ([8]; certain tumors): ≥ 20

N[C@@H](Cc1ccccc1)C(=O)O [L-phenylalanine, reference compound]
LD50 ([6]; i.p. injection, according to the manufacturer): 5280 mg/kg
